# Measurements from patent publication US11331369B2, “Endoparasitic depsipeptides” (Zoetis Services LLC, priority 2017, dated 2022).
# Tested on: microfilariae of Dirofilaria immitis
# Test: Dirofilaria immitis, Microfilaria (DiMF) In vitro Assay
# Type: cell-based
# Conditions: 72 h, read-out: DiMF Minimum Effective Dose (MED), approximately 72 hours incubation, microfilariae assessed for survival or paralysis
row,Structure (SMILES),minimal effective concentration
1,"CC(C)C[C@H]1C(=O)O[C@H](Cc2cccc(Cn3cc(-c4ccccn4)cn3)c2)C(=O)N(C)[C@@H](CC(C)C)C(=O)O[C@H](C)C(=O)N(C)[C@@H](CC(C)C)C(=O)O[C@H](Cc2cccc(Cn3cc(-c4ccccn4)cn3)c2)C(=O)N(C)[C@@H](CC(C)C)C(=O)O[C@H](C)C(=O)N1C [Example 4-16, (3S,6R,9S,12R,15S,18R,21S,24R)-3,9,15,21-tetraisobutyl-4,6,10,16,18,22-hexamethyl-12,24-bis(3-((4-(pyridin-2-yl)-1H-pyrazol-1-yl)methyl)benzyl)-1,7,13,19-tetraoxa-4,10,16,22-tetraazacyclotetracosan-2,5,8,11,14,17,20,23-octaone]",0.01 to 0.1 µM
2,"CC(C)C[C@H]1C(=O)O[C@H](Cc2cccc(Cn3cc(O)cn3)c2)C(=O)N(C)[C@@H](CC(C)C)C(=O)O[C@H](C)C(=O)N(C)[C@@H](CC(C)C)C(=O)O[C@H](Cc2cccc(Cn3cc(O)cn3)c2)C(=O)N(C)[C@@H](CC(C)C)C(=O)O[C@H](C)C(=O)N1C [Example 4-17, (3S,6R,9S,12R,15S,18R,21S,24R)-6,18-bis(3-((4-hydroxy-1H-pyrazol-1-yl)methyl)benzyl)-3,9,15,21-tetraisobutyl-4,10,12,16,22,24-hexamethyl-1,7,13,19-tetraoxa-4,10,16,22-tetraazacyclotetracosan-2,5,8,11,14,17,20,23-octaone]",0.01 to 0.1 µM
3,"CC(C)C[C@H]1C(=O)O[C@H](Cc2cccc(Cn3cc(F)cn3)c2)C(=O)N(C)[C@@H](CC(C)C)C(=O)O[C@H](C)C(=O)N(C)[C@@H](CC(C)C)C(=O)O[C@H](Cc2ccccc2)C(=O)N(C)[C@@H](CC(C)C)C(=O)O[C@H](C)C(=O)N1C [Example 5-1, (3S,6R,9S,12R,15S,18R,21S,24R)-6-benzyl-18-(3-((4-fluoro-1H-pyrazol-1-yl)methyl)benzyl)-3,9,15,21-tetraisobutyl-4,10,12,16,22,24-hexamethyl-1,7,13,19-tetraoxa-4,10,16,22-tetraazacyclotetracosan-2,5,8,11,14,17,20,23-octaone]",0.001 to 0.01 µM
4,"CC(C)C[C@H]1C(=O)O[C@H](Cc2cccc(Cn3cc([N+](=O)[O-])cn3)c2)C(=O)N(C)[C@@H](CC(C)C)C(=O)O[C@H](C)C(=O)N(C)[C@@H](CC(C)C)C(=O)O[C@H](Cc2ccccc2)C(=O)N(C)[C@@H](CC(C)C)C(=O)O[C@H](C)C(=O)N1C [Example 5-2, (3S,6R,9S,12R,15S,18R,21S,24R)-6-benzyl-3,9,15,21-tetraisobutyl-4,10,12,16,22,24-hexamethyl-18-(3-((4-nitro-1H-pyrazol-1-yl)methyl)benzyl)-1,7,13,19-tetraoxa-4,10,16,22-tetraazacyclotetracosan-2,5,8, 11,14,17,20,23-octaone]",0.001 to 0.01 µM
5,"CC(C)C[C@H]1C(=O)O[C@H](Cc2cccc(Cn3cc(O)cn3)c2)C(=O)N(C)[C@@H](CC(C)C)C(=O)O[C@H](C)C(=O)N(C)[C@@H](CC(C)C)C(=O)O[C@H](Cc2ccccc2)C(=O)N(C)[C@@H](CC(C)C)C(=O)O[C@H](C)C(=O)N1C [Example 5-3, (3S,6R,9S,12R,15S,18R,21S,24R)-6-benzyl-18-(3-((4-hydroxy-1H-pyrazol-1-yl)methyl)benzyl)-3,9,15,21-tetraisobutyl-4,10,12,16,22,24-hexamethyl-1,7,13,19-tetraoxa-4,10,16,22-tetraazacyclotetracosan-2,5,8,11,14,17,20,23-octaone]",0.01 to 0.1 µM
6,"CC(C)C[C@H]1C(=O)O[C@H](Cc2cccc(Cn3nc(CO)cc3CO)c2)C(=O)N(C)[C@@H](CC(C)C)C(=O)O[C@H](C)C(=O)N(C)[C@@H](CC(C)C)C(=O)O[C@H](Cc2ccccc2)C(=O)N(C)[C@@H](CC(C)C)C(=O)O[C@H](C)C(=O)N1C [Example 5-4, (3S,6R,9S,12R,15S,18R,21S,24R)-6-benzyl-18-(3-((3,5-bis(hydroxymethyl)-1H-pyrazol-1-yl)methyl)benzyl)-3,9,15,21-tetraisobutyl-4,10,12,16,22,24-hexamethyl-1,7,13,19-tetraoxa-4,10,16,22-tetraazacyclotetracosan-2,5,8,11,14,17,20,23-octaone]",0.01 to 0.1 µM
7,"CC(C)C[C@H]1C(=O)O[C@H](Cc2cccc(Cn3nc(C4CC4)cc3C3CC3)c2)C(=O)N(C)[C@@H](CC(C)C)C(=O)O[C@H](C)C(=O)N(C)[C@@H](CC(C)C)C(=O)O[C@H](Cc2ccccc2)C(=O)N(C)[C@@H](CC(C)C)C(=O)O[C@H](C)C(=O)N1C [Example 5-6, (3S,6R,9S,12R,15S,18R,21S,24R)-6-benzyl-18-(3-((3,5-dicyclopropyl-1H-pyrazol-1-yl)methyl)benzyl)-3,9,15,21-tetraisobutyl-4,10,12,16,22,24-hexamethyl-1,7,13,19-tetraoxa-4,10,16,22-tetraazacyclotetracosan-2,5,8,11,14,17,20,23-octaone]",0.01 to 0.1 µM
8,"Cc1nccn1Cc1ccc(C[C@H]2OC(=O)[C@H](CC(C)C)N(C)C(=O)[C@@H](C)OC(=O)[C@H](CC(C)C)N(C)C(=O)[C@@H](Cc3ccc(Cn4ccnc4C)cc3)OC(=O)[C@H](CC(C)C)N(C)C(=O)[C@@H](C)OC(=O)[C@H](CC(C)C)N(C)C2=O)cc1 [Example 6-1, (3S,6R,9S,12R,15S,18R,21S,24R)-3,9,15,21-tetraisobutyl-4,6,10,16,18,22-hexamethyl-12,24-bis[[4-[(2-methylimidazol-1-yl)methyl]phenyl]methyl]-1,7,13,19-tetraoxa-4,10,16,22-tetrazacyclotetracosane-2,5,8,11,14,17,20,23-octaone]",0.001 to 0.01 µM
9,"CC(C)C[C@H]1C(=O)O[C@H](Cc2ccc(Cn3ccnc3)cc2)C(=O)N(C)[C@@H](CC(C)C)C(=O)O[C@H](C)C(=O)N(C)[C@@H](CC(C)C)C(=O)O[C@H](Cc2ccc(Cn3ccnc3)cc2)C(=O)N(C)[C@@H](CC(C)C)C(=O)O[C@H](C)C(=O)N1C [Example 6-2, (3S,6R,9S,12R,15S,18R,21S,24R)-6,18-bis[[4-(imidazol-1-ylmethyl)phenyl]methyl]-3,9,15,21-tetraisobutyl-4,10,12,16,22,24-hexamethyl-1,7,13,19-tetraoxa-4,10,16,22-tetrazacyclotetracosane-2,5,8,11,14,17,20,23-octaone]",0.01 to 0.1 µM
10,"CCc1nccn1Cc1ccc(C[C@H]2OC(=O)[C@H](CC(C)C)N(C)C(=O)[C@@H](C)OC(=O)[C@H](CC(C)C)N(C)C(=O)[C@@H](Cc3ccc(Cn4ccnc4CC)cc3)OC(=O)[C@H](CC(C)C)N(C)C(=O)[C@@H](C)OC(=O)[C@H](CC(C)C)N(C)C2=O)cc1 [Example 6-4, (3S,6R,9S,12R,15S,18R,21S,24R)-6,18-bis[[4-[(2-ethylimidazol-1-yl)methyl]phenyl]methyl]-3,9,15,21-tetraisobutyl-4,10,12,16,22,24-hexamethyl-1,7,13,19-tetraoxa-4,10,16,22-tetrazacyclotetracosane-2,5,8,11,14,17,20,23-octaone]",0.01 to 0.1 µM
11,"Cc1cn(Cc2ccc(C[C@H]3OC(=O)[C@H](CC(C)C)N(C)C(=O)[C@@H](C)OC(=O)[C@H](CC(C)C)N(C)C(=O)[C@@H](Cc4ccc(Cn5cc(C)nc5C)cc4)OC(=O)[C@H](CC(C)C)N(C)C(=O)[C@@H](C)OC(=O)[C@H](CC(C)C)N(C)C3=O)cc2)c(C)n1 [Example 6-5, (3S,6R,9S,12R,15S,18R,21S,24R)-6,18-bis(4-((2,4-dimethyl-1H-imidazol-1-yl)methyl)benzyl)-3,9,15,21-tetraisobutyl-4,10,12,16,22,24-hexamethyl-1,7,13,19-tetraoxa-4,10,16,22-tetraazacyclotetracosan-2,5,8,11,14,17,20,23-octaone]",0.01 to 0.1 µM
12,"CC(C)C[C@H]1C(=O)O[C@H](Cc2ccc(Cn3ccnc3C(C)(C)C)cc2)C(=O)N(C)[C@@H](CC(C)C)C(=O)O[C@H](C)C(=O)N(C)[C@@H](CC(C)C)C(=O)O[C@H](Cc2ccc(Cn3ccnc3C(C)(C)C)cc2)C(=O)N(C)[C@@H](CC(C)C)C(=O)O[C@H](C)C(=O)N1C [Example 6-6, (3S,6R,9S,12R,15S,18R,21S,24R)-6,18-bis[[4-[(2-tert-butylimidazol-1-yl)methyl]phenyl]methyl]-3,9,15,21-tetraisobutyl-4,10,12,16,22,24-hexamethyl-1,7,13,19-tetraoxa-4,10,16,22-tetrazacyclotetracosane-2,5,8,11,14,17,20,23-octaone]",0.01 to 0.1 µM
13,"CC(C)C[C@H]1C(=O)O[C@H](Cc2ccc(Cn3ccnc3C(C)C)cc2)C(=O)N(C)[C@@H](CC(C)C)C(=O)O[C@H](C)C(=O)N(C)[C@@H](CC(C)C)C(=O)O[C@H](Cc2ccc(Cn3ccnc3C(C)C)cc2)C(=O)N(C)[C@@H](CC(C)C)C(=O)O[C@H](C)C(=O)N1C [Example 6-8, (3S,6R,9S,12R,15S,18R,21S,24R)-3,9,15,21-tetraisobutyl-6,18-bis(4-((2-isopropyl-1H-imidazol-1-yl)methyl)benzyl)-4,10,12,16,22,24-hexamethyl-1,7,13,19-tetraoxa-4,10,16,22-tetraazacyclotetracosan-2,5,8,11,14,17,20,23-octaone]",0.01 to 0.1 µM
14,"CC(C)C[C@H]1C(=O)O[C@H](Cc2ccc(Cn3ccnc3I)cc2)C(=O)N(C)[C@@H](CC(C)C)C(=O)O[C@H](C)C(=O)N(C)[C@@H](CC(C)C)C(=O)O[C@H](Cc2ccc(Cn3ccnc3I)cc2)C(=O)N(C)[C@@H](CC(C)C)C(=O)O[C@H](C)C(=O)N1C [Example 6-10, (3S,6R,9S,12R,15S,18R,21S,24R)-6,18-bis(4-((2-iodo-1H-imidazol-1-yl)methyl)benzyl)-3,9,15,21-tetraisobutyl-4,10,12,16,22,24-hexamethyl-1,7,13,19-tetraoxa-4,10,16,22-tetraazacyclotetracosan-2,5,8,11,14,17,20,23-octaone]",0.01 to 0.1 µM
15,"CC(C)C[C@H]1C(=O)O[C@H](Cc2ccc(Cn3ccnc3-c3ccccc3)cc2)C(=O)N(C)[C@@H](CC(C)C)C(=O)O[C@H](C)C(=O)N(C)[C@@H](CC(C)C)C(=O)O[C@H](Cc2ccc(Cn3ccnc3-c3ccccc3)cc2)C(=O)N(C)[C@@H](CC(C)C)C(=O)O[C@H](C)C(=O)N1C [Example 6-11, (3S,6R,9S,12R,15S,18R,21S,24R)-3,9,15,21-tetraisobutyl-4,6,10,16,18,22-hexamethyl-12,24-bis(4-((2-phenyl-1H-imidazol-1-yl)methyl)benzyl)-1,7,13,19-tetraoxa-4,10,16,22-tetraazacyclotetracosan-2,5,8,11,14,17,20,23-octaone]",0.01 to 0.1 µM
